These results are taken from PMC3304000 (Bioorganic & medicinal chemistry, 2012).

Molecules are shown by their SMILES. Values after ≈ are worked out from the molar mass of the structure shown. Values joined by “and” are separate entries in the source; they are usually repeats but may differ in a detail not shown here. Identical values can stand only once.

Assay in all cases: microbe, parasite or virus in culture
Holding throughout (format): cell-based
Holding throughout (settings): Mycobacterium tuberculosis

Assay [1] concerns MDR-TB resistant to HREKP.
The subject of assay [2] is MDR-TB resistant to HRERb.
Assay [3] has as its system XDR-TB resistant to HRESKO.
Assay [4] has as its system XDR-TB resistant to HREKO.
Assay [5] concerns MDR-TB resistant to HREZSKP.
[6] abbreviates: MDR-TB resistant to HRERb, value in parentheses.
Setting [7] is: MDR-TB resistant to HRERb (isoniazid, rifampin, ethambutol, rifabutin).

`O=C(OCc1ccccc1)c1coc(-c2ccccc2)n1` [Compound 2]: the MIC in assay [1] amounted to 0.3 mg/L (≈ 1.07 µM); in assay [2] (setting [6]), 2.5 mg/L; in assay [3] it was 1.25 mg/L (≈ 4.48 µM); in assay [4] it was 2.5 mg/L (≈ 8.95 µM); in assay [5], 2.5 mg/L (≈ 8.95 µM).

Take `O=C(OCc1ccccc1)c1csc(-c2ccccc2)n1` [Compound 5]: the MIC in assay [1] came to 1.25 mg/L (≈ 4.23 µM); in assay [2] (setting [6]), 10 mg/L; in assay [3] it was 5 mg/L (≈ 16.9 µM); in assay [4], 5 mg/L (≈ 16.9 µM); in assay [5], 10 mg/L (≈ 33.9 µM).

Regarding `Cc1ccn2c(C(=O)OCc3ccccc3)c(C)nc2c1` [Compound 11, benzyl 2,7-dimethylimidazo[1,2-a]pyridine-3-carboxylate], the MIC was below 0.01 mg/L in assay [1]; 0.6 µM in assay [2] (setting [7]); 0.16 mg/L in assay [2] (setting [6]); below 0.01 mg/L in assay [3]; below 0.01 mg/L in assay [4]; below 0.01 mg/L in assay [5].

`O=[N+]([O-])c1cn2c(n1)OC[C@@H](OCc1ccc(OC(F)(F)F)cc1)C2` [PA-824, reference compound]: the MIC in assay [1] is 0.45 µM to 0.86 µM and 0.16 µg/mL to 0.31 µg/mL; in assay [2] (setting [7]), 0.45 to 0.86 µM; in assay [2] (setting [6]) it was 0.16 to 0.31 mg/L; in assay [3], 0.31 mg/L (≈ 0.863 µM); in assay [4], 0.08 mg/L (≈ 0.223 µM); in assay [5], 0.45 µM to 0.86 µM and 0.16 µg/mL to 0.31 µg/mL.
